In patent US20110039920A1, “INHIBITORS OF IKK-BETA SERINE-THERONINE PROTEIN KINASE” (CHROMA THERAPEUTICS LTD., priority 2008, published 2011):
pIC50: −log10 of the molar value.

Legend:
[1] = system: THP-1 TNFα release; assay: LPS-stimulation of THP-1 cells, TNF-α by ELISA; format: cell-based; conditions: Homo sapiens, inhibitor 2 hrs before LPS 1 μg/ml, 6 hrs, read-out: Inhibitor activity versus THP-1 TNFα release
Procedure: THP-1 cells were plated in 100 μl at a density of 4×10^4 cells/well in V-bottomed 96 well tissue culture treated plates and incubated at 37° C. in 5% CO2 for 16 hrs. 2 hrs after the addition of the inhibitor in 100 μl of tissue culture media, the cells were stimulated with LPS (E coli strain 005:65, Sigma) at a final concentration of 1 μg/ml and incubated at 37° C. in 5% CO2 for 6 hrs. TNF-α levels were measured from cell-free supernatants by sandwich ELISA (R&D Systems #QTA00B)

[2] = system: human whole blood TNFα release; assay: LPS-stimulation of human whole blood, TNF-α by ELISA; format: cell-based; conditions: inhibitor 2 hrs before LPS 100 ng/ml, 6 hrs, read-out: Inhibitor activity versus human whole blood TNFα release
Procedure: Whole blood was taken by venous puncture using heparinised vacutainers (Becton Dickinson) and diluted in an equal volume of RPMI1640 tissue culture media (Sigma). 100 μl was plated in V-bottomed 96 well tissue culture treated plates. 2 hrs after the addition of the inhibitor in 100 μl of RPMI1640 media, the blood was stimulated with LPS (E coli strain 005:B5, Sigma) at a final concentration of 100 ng/ml and incubated at 37° C. in 5% CO2 for 6 hrs. TNF-α levels were measured from cell-free supernatants by sandwich ELISA (R&D Systems #QTA00B)

`C[C@H](NCc1cccc(-c2cc(C(N)=O)c(NC(N)=O)s2)c1)C(=O)OC1CCCC1` [Example 11, Cyclopentyl N-{3-[4-carbamoyl-5-(carbamoylamino)-2-thienyl]benzyl}-L-alaninate] gave a pIC50 [1] of 6.00 to 6.30 and a pIC50 [2] of 6.00 to 6.30.
